Assay results reported in US20230390273A1, “4-PHENYL-TETRAHYDROPYRIDINE DERIVATIVES FOR TREATING HEARING DISEASES” (CILCARE DEV, priority 2021, published 2023).
Structures can show the parent of a compound that is named as a salt.

Columns and labels:
[1] = test system: male Wistar rats; assay: ABR thresholds after acoustic trauma and trans-tympanic treatment (Example 5); assay type: in vivo
Experimental: Fourty-three male Wistar rats were selected and distributed to treatment and control groups, each group comprising between 6 to 9 rats at the start of the study. Randomization was performed using the ABR threshold in the left ear at 16 kHz as a criterium. The “sham” group comprises 7 rats, which received neither noise exposure nor trans-tympanic injection. […] The “traumatized” group comprises 9 rats, which received noise exposure only and no treatment. The “traumatized vehicle” group comprises 7 rats, which received noise exposure and a trans-tympanic injection of placebo (a composition comprising only Cremophor EL®). The “traumatized paliroden” group comprises 7 rats, which received noise exposure and a trans-tympanic injection of a composition comprising paliroden (fumarate salt), corresponding to composition 7P described in Example 2. The “traumatized xaliproden” group comprises 7 rats, which received noise exposure and a trans-tympanic injection of a composition comprising xaliproden (hydrochloride salt), corresponding to composition 7X described in Example 2.
All animals (except sham group) received a bilateral noise exposure at a noise band of 8-16 kHz at 115 dB SPL RMS during 2 hours (from time T0 to time T0+2 hours).
30 μL of compositions comprising either paliroden or xaliproden as active agent were administered once in both ears of each rat of the treatment groups (30 μL per ear) via trans-tympanic administration by injection between the eardrum and the round window by means of a needle which crosses the eardrum, 4 hours after the start of the noise exposure (i.e. at T0+4 hours, thus 2 hours after the end of the noise exposure), under isoflurane anesthesia. The compositions correspond respectively to compositions 7P and 7X described in Example 2, i.e. they comprise only Cremophor EL® as excipient and either paliroden (fumarate salt) or xaliproden (hydrochloride salt) as active agent. The dose of paliroden (fumarate salt) that is administered is 240 μg per ear of the rats belonging to the “traumatized paliroden” group (240 μg in the 30 μL that are injected via trans-tympanic route by injection between the eardrum and the round window by means of a needle which crosses the eardrum). The dose of xaliproden (hydrochloride salt) that is administered is 192 μg per ear of the rats belonging to the “traumatized xaliproden” group (192 μg in the 30 μL that are injected via trans-tympanic route by injection between the eardrum and the round window by means of a needle which crosses the eardrum). […]

[2] = test system: synaptic ribbons in inner hair cells; assay: Ribbon synapse immunostaining and counting in cochlea, delayed treatment (Example 7); assay type: in vivo, male Wistar rats; settings: for Number of pre-synaptic and post-synaptic elements (CtBP2 and Homer) per IHC / Number of colocalized ribbons per IHC: 25 kHz, vs traumatized vehicle and NaCl groups, 2 days and 9 days post-noise; for Number of colocalized ribbons per IHC: statistically significant for Paliroden; for Synapse loss in the inner hair cells (FIG. 8): regions coding high frequency sounds, printed 2 hours and 8 days post-noise
Experimental: At T+28 days, after DPOAE/ABR measures, 10 cochlea (all eight (8) left cochleae and two (2) right cochleae taken randomly) per group were rapidly sampled and immediately fixed by PFA perfusion (through the round and oval windows with PFA 4% after creating a small hole at the apex) in order to performed ribbon synapse immunostaining and analysis. Cochleae were fixed for 1 hour in a 4% PFA solution and decalcified in undiluted RDO (10 mL/cochlea for a minimum of 2 hours). The membranous and sensory spiral containing the organ of Corti are dissected out as a flat surface preparation under a dissecting microscope and immunolabelled with appropriate antibodies: • Vglut3 (Vglut3-Guinea Pig IgG; #135 204, Synaptic systems and Anti-Guinea Pig IgG (H+L), #A21450; Thermo Fisher Scientific 647 nm Far-Red) to stain inner hair cell bodies (vesicular glutamate transporter). • Homer (Homer-Rabbit IgG; #GTX103278; Genetex and Anti-Rabbit IgG (H+L) #A11008 Thermo Fisher Scientific 568 nm Red) to stain dendritic proteins of auditory nerve fibers connecting to IHC (post-synaptic). • CtBP2 (CtBP2-Mouse-IgG1; #612044; BD Transduction Laboratories and Anti-Mouse IgG1, #A21121, Thermo Fisher Scientific 488 Green) to stain the ribeye protein as pre-synaptic marker in IHC. • Phalloidin (Alexa Fluor™ Plus 405 Phalloidin; #A30104; Thermo Fisher Scientific 405 Blue).
Images were acquired on a confocal microscope and the slides were analyzed to i) evaluate by visual observation the presence of OHC and IHC (based on nuclei staining with CtBP2 and HC cell body staining with phalloidin) and ii) count the number of synaptic ribbons in selected inner hair cells in cochlea regions coding sound of selected frequency (16 kHz, 25 kHz and 32 kHz).
The number of pre- (CtBP2) and post-synaptic (Homer) labeled spots was counted using Imaris software in 3 dimensions for each image. Co-localization of pre- and post-synaptic elements was defined as a distance of maximum […] between CtBP2- and Homer-labeled spots, using an in-house Matlab program to calculate the distances between CtBP2 and Homer labels from the x, y, and z coordinates.

[3] = one day following noise exposure, from 25 to 32 kHz, paliroden 240 μg/ear, xaliproden 192 μg/ear

Structure (SMILES)	ABR Threshold shifts reduction in comparison to the traumatized vehicle group ([1]; 7 days post-noise, from 16 to 32 kHz, paliroden 240 μg/ear)	ABR Threshold shifts reduction in comparison to the traumatized vehicle group [1, 3]	Number of pre-synaptic and post-synaptic elements (CtBP2 and Homer) per IHC [2]	Number of colocalized ribbons per IHC [2]	Synapse loss in the inner hair cells (FIG. 8) [2]	ABR Threshold shifts reduction in comparison to the traumatized vehicle group ([1]; 7 days post-noise, from 25 to 32 kHz, xaliproden 192 μg/ear)
FC(F)(F)c1cccc(C2=CCN(CCc3ccc(-c4ccccc4)cc3)CC2)c1 [paliroden (fumarate salt), 1-[2-(4-biphenylyl)ethyl]-4-(3-trifluoromethylphenyl)-1,2,3,6-tetrahydropyridine]	15-20 dB	approximately 10 dB	increase	increase	significantly repair synapse loss	–
FC(F)(F)c1cccc(C2=CCN(CCc3ccc4ccccc4c3)CC2)c1 [xaliproden (hydrochloride salt), 1-[2-(2-naphthyl)ethyl]-4-(3-trifluoromethylphenyl)-1,2,3,6-tetrahydropyridine]	–	approximately 10 dB	increase	increase	significantly repair synapse loss	approximately 15 dB
